Patent US9296716B2, “Androgen receptor ligands” (THE PROVOST, FELLOWS, FOUNDATION SCHOLARS, & THE OTHER …, priority 2011, dated 2016)

Molecular target: T1, AR-LBD wt (Homo sapiens, UniProt P10275)
T1 sequence (P10275 669-900 limits assumed): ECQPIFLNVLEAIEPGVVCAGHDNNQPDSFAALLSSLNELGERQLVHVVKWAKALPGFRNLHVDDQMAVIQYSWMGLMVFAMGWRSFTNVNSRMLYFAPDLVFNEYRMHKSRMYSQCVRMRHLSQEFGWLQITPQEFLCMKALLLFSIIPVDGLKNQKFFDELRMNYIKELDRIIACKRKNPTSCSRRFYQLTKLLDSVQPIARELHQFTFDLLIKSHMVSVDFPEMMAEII
Assay: Lanthascreen TR-FRET AR coactivator (D11-FxxLF) assay, AR-LBD wt
Type: biochemical
Details: for IC50: TR-FRET, D11-FxxLF peptide, DHT = EC80, read-out: Activity (AR wt TR-FRET)

Structure (SMILES)	IC50	type of AR antagonism (full / partial) (TR-FRET in agonist and antagonist mode)
CCOc1cc(/C=N/NC(=O)c2cc3ccccc3cc2O)ccc1O [MDG481]	> 100 µM	
O=C(N/N=C/c1cccnc1)c1cc2ccccc2cc1O [MDG482]	> 100 µM	
COc1ccc(C(=O)NNC(=O)c2cc3ccccc3cc2O)cc1 [MDG484]	> 100 µM	
O=C(N/N=C/c1cccc(O)c1O)c1ccccc1 [MDG485]	> 100 µM	
COc1cc(/C=N/NC(=O)c2cc3ccccc3cc2O)cc(OC)c1O [MDG489, 3-hydroxy-N′-(4-hydroxy-3,5-dimethoxybenzylidene)-2-naphthohydrazide]	> 100 µM	
CCN(CC)c1ccc(/C=N/NC(=O)c2cc3ccccc3cc2O)cc1 [MDG493]	> 100 µM	
O=C(N/N=C/c1cccc(OCc2ccccc2)c1)c1cc2ccccc2cc1O [MDG495]	> 100 µM	
O=C(N/N=C/c1cccc(Cl)c1Cl)c1cc2ccccc2cc1O [MDG496]	> 100 µM	
Cc1cccc(/C=N/NC(=O)c2cc3ccccc3cc2O)c1 [MDG497]	> 100 µM	
O=C(N/N=C/c1ccc(OCc2ccccc2)cc1)c1cc2c(ccc3ccccc32)o1 [MDG499]	> 100 µM	
CC(C)Oc1ccc(/C=N/NC(=O)c2cc3c(ccc4ccccc43)o2)cc1 [MDG502]	> 100 µM	
COc1ccc(/C=N/NC(=O)c2cc3c(ccc4ccccc43)o2)c2ccccc12 [MDG503]	> 100 µM	
COc1ccc(/C=N/NC(=O)c2cc3c(ccc4ccccc43)o2)cc1C [MDG504]	> 100 µM	
COc1cccc(/C=N/NC(=O)c2cc3c(ccc4ccccc43)o2)c1 [MDG505, N′-(3-methoxybenzylidene)naphtho[2,1-b]furan-2-carbohydrazide]	> 100 µM	
COc1ccc(/C=N/NC(=O)c2cc3c(ccc4ccccc43)o2)cc1O [MDG507]	> 100 µM	
CCCOc1ccc(/C=N/NC(=O)c2cc3c(ccc4ccccc43)o2)cc1OC [MDG509]	> 100 µM	
CCOc1ccc(/C=N/NC(=O)c2cc3c(ccc4ccccc43)o2)cc1 [MDG512]	> 100 µM	
COc1cc(/C=N/NC(=O)c2cc3c(ccc4ccccc43)o2)cc(Cl)c1OCc1ccccc1 [MDG515]	> 100 µM	
COc1cc(/C=N/NC(=O)c2cc3c(ccc4ccccc43)o2)c(Br)cc1O [MDG516]	> 100 µM	
COc1ccccc1/C=N/NC(=O)c1ccc2ccccc2c1O [MDG599]	> 100 µM	
COc1cc2ccccc2cc1C(=O)N/N=C/c1ccccc1O [MDG600]	> 100 µM	
O=C(N/N=C/c1cc2ccccc2cc1O)c1ccc(C(=O)N/N=C/c2cc3ccccc3cc2O)cc1 [MDG602]	> 100 µM	
O=C(N/N=C/c1cccc2ccccc12)c1cc2ccccc2cc1O [MDG607]	> 100 µM	
O=C(N/N=C/c1cc(I)ccc1O)c1cc2ccccc2cc1O [MDG613]	> 100 µM	
COc1cc(Cl)cc(/C=N/NC(=O)c2cc3ccccc3cc2O)c1O [MDG615]	> 100 µM	
O=C(N/N=C/c1cccc(Cl)c1O)c1cc2ccccc2cc1O [MDG618, 3-hydroxy-N′-(2-hydroxy-3-chlorobenzylidene)-2-naphthohydrazide]	> 200 µM	
C/C(=N\NC(=O)c1cc2ccccc2cc1O)c1cc(Cl)ccc1O [MDG621, 3-hydroxy-N′-[(1E)-1-(2-hydroxy-5-chlorophenyl)ethylidene]-2-naphthohydrazide]	> 100 µM	
O=C(N/N=C/c1cc(Cl)ccc1O)c1ccc2ccccc2c1 [MDG622]	> 100 µM	
C/C(=N\NC(=O)c1cc2ccccc2cc1O)c1ccc2ccccc2c1 [MDG626]	> 100 µM	
O=C(N/N=C/c1cc(Cl)ccc1[N+](=O)[O-])c1cc2ccccc2cc1O [MDG633]	> 100 µM	

The next lines start with the values.

IC50	type of AR antagonism (full / partial) (TR-FRET in agonist and antagonist mode)	Structure (SMILES)
> 100 µM		O=C(N/N=C/c1cccc(O)c1O)c1ccccc1O [MDG486]
> 100 µM		O=C(N/N=C/c1ccc2ccccc2c1)c1ccccc1O [MDG487]
> 100 µM		CCOc1ccc(/C=N/NC(=O)c2cc3ccccc3cc2O)cc1O [MDG488]
> 100 µM		O=C(N/N=C/c1ccccc1C(=O)O)c1cc2ccccc2cc1O [MDG490]
> 100 µM		Cc1ccccc1/C=N/NC(=O)c1cc2ccccc2cc1O [MDG492]
> 100 µM		COc1ccc(/C=N/NC(=O)c2cc3ccccc3cc2O)cc1O [MDG494]
> 100 µM		O=C(N/N=C/c1ccc(O)c(Br)c1)c1cc2c(ccc3ccccc32)o1 [MDG500]
> 100 µM		COc1cc(Br)cc(/C=N/NC(=O)c2cc3c(ccc4ccccc43)o2)c1O [MDG501]
> 100 µM		CCCOc1ccc(/C=N/NC(=O)c2cc3c(ccc4ccccc43)o2)cc1OCC [MDG510]
> 100 µM		COc1cc(/C=N/NC(=O)c2cc3c(ccc4ccccc43)o2)cc(OC)c1OC [MDG511]
> 100 µM		COc1c(Cl)cc(/C=N/NC(=O)c2cc3c(ccc4ccccc43)o2)cc1Cl [MDG513]
> 100 µM		CCOc1c(Cl)cc(/C=N/NC(=O)c2cc3c(ccc4ccccc43)o2)cc1Cl [MDG514]
> 100 µM		CCOc1cc(/C=N/NC(=O)c2cc3ccccc3o2)cc(I)c1OC [MDG598]
> 100 µM		O=C(C/C=N/C=N/NC(=O)c1ccccc1O)c1ccccc1O [MDG601]
11.3 ± 2.6 µM	full AR antagonists	C/C(=N\NC(=O)c1cc2ccccc2cc1O)C1C(=O)c2ccccc2C1=O [MDG603]
> 100 µM		C/C(=N\NC(=O)c1cc2ccccc2cc1O)c1ccco1 [MDG604]
> 100 µM		Cc1ccc(O)c(/C=N/NC(=O)c2cc3ccccc3cc2O)c1 [MDG609]
> 100 µM		CC(C)(C)c1ccc(O)c(/C=N/NC(=O)c2cc3ccccc3cc2O)c1 [MDG610]
> 100 µM		COc1ccccc1/C=N/NC(=O)c1cc2ccccc2cc1O [MDG619]
> 100 µM		COc1ccc(Br)cc1/C=N/NC(=O)c1cc2ccccc2cc1O [MDG620]
> 100 µM		O=C(N/N=C/c1ccc(Cl)c([N+](=O)[O-])c1)c1cc2ccccc2cc1O [MDG623]
> 100 µM		O=C(N/N=C/c1ccc2ccccc2c1O)c1cc2ccccc2cc1O [MDG624]
> 100 µM		O=C(N/N=C/c1ccc2ccccc2c1)c1cc2ccccc2cc1O [MDG625]
> 100 µM		O=C(N/N=C(\c1ccccc1)c1ccc2ccccc2c1)c1cc2ccccc2cc1O [MDG627]
> 100 µM		O=C(N/N=C/c1ccccc1)c1cc2ccccc2cc1O [MDG628, 3-hydroxy-N′-benzylidene-2-naphthohydrazide]
> 100 µM		O=C(N/N=C/c1ccccc1[N+](=O)[O-])c1cc2ccccc2cc1O [MDG631]
> 100 µM		Nc1ccccc1/C=N/NC(=O)c1cc2ccccc2cc1O [MDG632]
